Source: US10457709B2, “Antimicrobial peptides, their variants and uses” (priority 2015, dated 2019)
≈ marks a conversion by molar mass, not a printed value. Ends that are not written are not given here.

Columns and labels:
Assay in all cases: microbe, parasite or virus in culture
Assay type in all cases: cell-based
[1] = test system: Escherichia coli (ATCC 25922)
Experimental: (§1) Minimum inhibition concentrations (MICs) were determined against Escherichia coli (ATCC 25922), Staphylococcus aureus (ATCC 25923), Klebsiella pneumoniae (ATCC 10031) and Pseudomonas aeruginosa (ATCC 27853). Also clinical strains of E. coli, K. pneumoniae, E. cloacae, P. aeruginosa, Serratia marcescens, Proteus mirabilis, S. pneumoniae, Acinetobacter baumannii, A. johnsonii and S. aureus were used for MICs assays. Additionally, clinical strains of yeast including Candida albicans, C. glabrata, C. parapsilosis and C. quillermondiae were used. The susceptibility of these microorganisms to Chain peptides were determined using micro broth dilution assay. Colonies of the respective microorganism from Muller Hinton (MH) agar plates incubated overnight were suspended in MH broth media and final concentration of microorganism was adjusted to 5.0×10^5 cfu/ml. An aliquot of 10 μl of each Chain peptide, or gentamicin, tetracycline as reference antibiotics were added in differing concentrations along with 90 μl of bacterial suspension to 96 well polypropylene plates and incubated at 37° C. for 20 to 24 hours. Concentrations of Chain peptides and reference antibiotics ranged from 0.125 to 128 μg/ml and the MICs were recorded as the lowest concentration with no visual growth of bacteria. Similarly, antifungal MICs were tested in Potato dextrose broth.

[2] = test system: Klebsiella pneumoniae (ATCC 10031)
Experimental: as §1

[3] = test system: Pseudomonas aeruginosa (ATCC 27853)
Experimental: as §1

[4] = test system: Staphylococcus aureus (ATCC 25923)
Experimental: as §1

For RLKWFWLRKLK [Chain305], the “Minimum inhibitory concentration, Escherichia coli (ATCC 25922)” value [1] was 128 µg/mL, the “Minimum inhibitory concentration, Klebsiella pneumoniae (ATCC 10031)” value (“Minimum inhibitory concentration … (ATCC 10031)” for short) [2] was 64 µg/mL and the “Minimum inhibitory concentration, Pseudomonas aeruginosa (ATCC 27853)” value (from here on “Minimum inhibitory concentration … (ATCC 27853)”) [3] was 16 µg/mL. For the same compound, the “Minimum inhibitory concentration, Staphylococcus aureus (ATCC 25923)” value (from here on “Minimum inhibitory concentration … (ATCC 25923)”) [4] was 64 µg/mL.
CN(C)[C@@H]1C(O)=C(C(N)=O)C(=O)[C@@]2(O)C(O)=C3C(=O)c4c(O)cccc4[C@@](C)(O)[C@H]3C[C@@H]12 [Tetracycline, reference compound] was tested, and the MIC ([1]; Escherichia coli, ATCC25922, read-out: Minimum inhibitory concentration, Escherichia coli (ATCC 25922)) was 8 µg/mL (≈ 18 µM), the MIC ([2]; Klebsiella pneumoniae, ATCC10031, read-out: Minimum inhibitory concentration, Klebsiella pneumoniae (ATCC 10031)) was 2 µg/mL (≈ 4.5 µM) and the MIC ([3]; Pseudomonas aeruginosa, ATCC27853, read-out: Minimum inhibitory concentration, Pseudomonas aeruginosa (ATCC 27853)) was 32 µg/mL (≈ 72 µM). It also gave an MIC ([4]; Staphylococcus aureus, ATCC25923, read-out: Minimum inhibitory concentration, Staphylococcus aureus (ATCC 25923)) of 2 µg/mL (≈ 4.5 µM).
With KIRLHRKRLRK [Chain101] the “Minimum inhibitory concentration, Escherichia coli (ATCC 25922)” value [1] was greater than 128 µg/mL, the “Minimum inhibitory concentration … (ATCC 10031)” value [2] was greater than 128 µg/mL and the “Minimum inhibitory concentration … (ATCC 27853)” value [3] was greater than 128 µg/mL. For the same compound, the “Minimum inhibitory concentration … (ATCC 25923)” value [4] was greater than 128 µg/mL.
IWKRFRLFKKR [Chain303] was tested, and the “Minimum inhibitory concentration, Escherichia coli (ATCC 25922)” value [1] was 64 µg/mL, the “Minimum inhibitory concentration … (ATCC 10031)” value [2] was greater than 128 µg/mL and the “Minimum inhibitory concentration … (ATCC 27853)” value [3] was greater than 128 µg/mL. For the same compound, the “Minimum inhibitory concentration … (ATCC 25923)” value [4] was greater than 128 µg/mL.
With RRIVKLRWFKR [Chain203] the “Minimum inhibitory concentration, Escherichia coli (ATCC 25922)” value [1] was 32 µg/mL, the “Minimum inhibitory concentration … (ATCC 10031)” value [2] was greater than 128 µg/mL and the “Minimum inhibitory concentration … (ATCC 27853)” value [3] was greater than 128 µg/mL. The “Minimum inhibitory concentration … (ATCC 25923)” value [4] was greater than 128 µg/mL.
IWKRFRLFKKW [Chain304] was tested, and the “Minimum inhibitory concentration, Escherichia coli (ATCC 25922)” value [1] was 16 µg/mL, the “Minimum inhibitory concentration … (ATCC 10031)” value [2] was 64 µg/mL and the “Minimum inhibitory concentration … (ATCC 27853)” value [3] was 8 µg/mL. The “Minimum inhibitory concentration … (ATCC 25923)” value [4] was 32 µg/mL.
In the case of KRIVRWRTRKR [Chain205], the “Minimum inhibitory concentration, Escherichia coli (ATCC 25922)” value [1] is reported as 64 µg/mL, the “Minimum inhibitory concentration … (ATCC 10031)” value [2] is reported as greater than 128 µg/mL and the “Minimum inhibitory concentration … (ATCC 27853)” value [3] is reported as greater than 128 µg/mL. For the same compound, the “Minimum inhibitory concentration … (ATCC 25923)” value [4] was greater than 128 µg/mL.
With WRIVRWRKLKR [Chain209] the “Minimum inhibitory concentration, Escherichia coli (ATCC 25922)” value [1] was 64 µg/mL, the “Minimum inhibitory concentration … (ATCC 10031)” value [2] was greater than 128 µg/mL and the “Minimum inhibitory concentration … (ATCC 27853)” value [3] was greater than 128 µg/mL. The “Minimum inhibitory concentration … (ATCC 25923)” value [4] was greater than 128 µg/mL.
In the case of KLKKFKLFKKR [Chain312], the “Minimum inhibitory concentration, Escherichia coli (ATCC 25922)” value [1] is reported as greater than 128 µg/mL, the “Minimum inhibitory concentration … (ATCC 10031)” value [2] is reported as greater than 128 µg/mL and the “Minimum inhibitory concentration … (ATCC 27853)” value [3] is reported as greater than 128 µg/mL. The “Minimum inhibitory concentration … (ATCC 25923)” value [4] was greater than 128 µg/mL.
In the case of RKIVKKRTFKR [Chain202], the “Minimum inhibitory concentration, Escherichia coli (ATCC 25922)” value [1] is reported as greater than 128 µg/mL, the “Minimum inhibitory concentration … (ATCC 10031)” value [2] is reported as greater than 128 µg/mL and the “Minimum inhibitory concentration … (ATCC 27853)” value [3] is reported as 1 µg/mL. The “Minimum inhibitory concentration … (ATCC 25923)” value [4] was greater than 128 µg/mL.
With KLRLHAKRLRK [Chain103] the “Minimum inhibitory concentration, Escherichia coli (ATCC 25922)” value [1] was greater than 128 µg/mL, the “Minimum inhibitory concentration … (ATCC 10031)” value [2] was greater than 128 µg/mL and the “Minimum inhibitory concentration … (ATCC 27853)” value [3] was greater than 128 µg/mL. The “Minimum inhibitory concentration … (ATCC 25923)” value [4] was greater than 128 µg/mL.
In the case of WWRLHAKKKLW [Chain107], the “Minimum inhibitory concentration, Escherichia coli (ATCC 25922)” value [1] is reported as 64 µg/mL, the “Minimum inhibitory concentration … (ATCC 10031)” value [2] is reported as greater than 128 µg/mL and the “Minimum inhibitory concentration … (ATCC 27853)” value [3] is reported as greater than 128 µg/mL. The “Minimum inhibitory concentration … (ATCC 25923)” value [4] was greater than 128 µg/mL.
In the case of WRKWFWLFKKR [Chain309], the “Minimum inhibitory concentration, Escherichia coli (ATCC 25922)” value [1] is reported as 32 µg/mL, the “Minimum inhibitory concentration … (ATCC 10031)” value [2] is reported as 64 µg/mL and the “Minimum inhibitory concentration … (ATCC 27853)” value [3] is reported as 8 µg/mL. The “Minimum inhibitory concentration … (ATCC 25923)” value [4] was 32 µg/mL.
With YDKGFGLFKKM [Chain300] the “Minimum inhibitory concentration, Escherichia coli (ATCC 25922)” value [1] was greater than 128 µg/mL, the “Minimum inhibitory concentration … (ATCC 10031)” value [2] was greater than 128 µg/mL and the “Minimum inhibitory concentration … (ATCC 27853)” value [3] was greater than 128 µg/mL. The “Minimum inhibitory concentration … (ATCC 25923)” value [4] was greater than 128 µg/mL.
WWRLHAKRKLW [Chain108] was tested, and the “Minimum inhibitory concentration, Escherichia coli (ATCC 25922)” value [1] was greater than 128 µg/mL, the “Minimum inhibitory concentration … (ATCC 10031)” value [2] was greater than 128 µg/mL and the “Minimum inhibitory concentration … (ATCC 27853)” value [3] was greater than 128 µg/mL. For the same compound, the “Minimum inhibitory concentration … (ATCC 25923)” value [4] was greater than 128 µg/mL.
WRILRWRKLKR [Chain208] was tested, and the “Minimum inhibitory concentration, Escherichia coli (ATCC 25922)” value [1] was 32 µg/mL, the “Minimum inhibitory concentration … (ATCC 10031)” value [2] was greater than 128 µg/mL and the “Minimum inhibitory concentration … (ATCC 27853)” value [3] was 32 µg/mL. The “Minimum inhibitory concentration … (ATCC 25923)” value [4] was greater than 128 µg/mL.
For KRIVRWRKLKRK [Chain207], the “Minimum inhibitory concentration, Escherichia coli (ATCC 25922)” value [1] was greater than 128 µg/mL, the “Minimum inhibitory concentration … (ATCC 10031)” value [2] was greater than 128 µg/mL and the “Minimum inhibitory concentration … (ATCC 27853)” value [3] was greater than 128 µg/mL. For the same compound, the “Minimum inhibitory concentration … (ATCC 25923)” value [4] was greater than 128 µg/mL.
KRIVRWRWRKR [Chain206] was tested, and the “Minimum inhibitory concentration, Escherichia coli (ATCC 25922)” value [1] was 16 µg/mL, the “Minimum inhibitory concentration … (ATCC 10031)” value [2] was greater than 128 µg/mL and the “Minimum inhibitory concentration … (ATCC 27853)” value [3] was greater than 128 µg/mL. The “Minimum inhibitory concentration … (ATCC 25923)” value [4] was greater than 128 µg/mL.
IIKRFRLFKKL [Chain301] was tested, and the “Minimum inhibitory concentration, Escherichia coli (ATCC 25922)” value [1] was 64 µg/mL, the “Minimum inhibitory concentration … (ATCC 10031)” value [2] was greater than 128 µg/mL and the “Minimum inhibitory concentration … (ATCC 27853)” value [3] was 64 µg/mL. For the same compound, the “Minimum inhibitory concentration … (ATCC 25923)” value [4] was greater than 128 µg/mL.
RLKRFRLFRKRK [Chain313] was tested, and the “Minimum inhibitory concentration, Escherichia coli (ATCC 25922)” value [1] was 32 µg/mL, the “Minimum inhibitory concentration … (ATCC 10031)” value [2] was greater than 128 µg/mL and the “Minimum inhibitory concentration … (ATCC 27853)” value [3] was 64 µg/mL. For the same compound, the “Minimum inhibitory concentration … (ATCC 25923)” value [4] was greater than 128 µg/mL.
In the case of KLKWFWLFKKR [Chain311], the “Minimum inhibitory concentration, Escherichia coli (ATCC 25922)” value [1] is reported as 16 µg/mL, the “Minimum inhibitory concentration … (ATCC 10031)” value [2] is reported as 32 µg/mL and the “Minimum inhibitory concentration … (ATCC 27853)” value [3] is reported as 8 µg/mL. The “Minimum inhibitory concentration … (ATCC 25923)” value [4] was 32 µg/mL.
For DCWSAMIRLHAKYNQV [Chain100], the “Minimum inhibitory concentration, Escherichia coli (ATCC 25922)” value [1] was greater than 128 µg/mL, the “Minimum inhibitory concentration … (ATCC 10031)” value [2] was greater than 128 µg/mL and the “Minimum inhibitory concentration … (ATCC 27853)” value [3] was greater than 128 µg/mL. For the same compound, the “Minimum inhibitory concentration … (ATCC 25923)” value [4] was greater than 128 µg/mL.
WRIVQWRKLKR [Chain210] was tested, and the “Minimum inhibitory concentration, Escherichia coli (ATCC 25922)” value [1] was greater than 128 µg/mL, the “Minimum inhibitory concentration … (ATCC 10031)” value [2] was greater than 128 µg/mL and the “Minimum inhibitory concentration … (ATCC 27853)” value [3] was greater than 128 µg/mL. The “Minimum inhibitory concentration … (ATCC 25923)” value [4] was greater than 128 µg/mL.
In the case of KKRLHRKRLRK [Chain102], the “Minimum inhibitory concentration, Escherichia coli (ATCC 25922)” value [1] is reported as greater than 128 µg/mL, the “Minimum inhibitory concentration … (ATCC 10031)” value [2] is reported as greater than 128 µg/mL and the “Minimum inhibitory concentration … (ATCC 27853)” value [3] is reported as greater than 128 µg/mL. For the same compound, the “Minimum inhibitory concentration … (ATCC 25923)” value [4] was greater than 128 µg/mL.
WIRLHWKRLRK [Chain106] was tested, and the “Minimum inhibitory concentration, Escherichia coli (ATCC 25922)” value [1] was greater than 128 µg/mL, the “Minimum inhibitory concentration … (ATCC 10031)” value [2] was greater than 128 µg/mL and the “Minimum inhibitory concentration … (ATCC 27853)” value [3] was 64 µg/mL. For the same compound, the “Minimum inhibitory concentration … (ATCC 25923)” value [4] was greater than 128 µg/mL.
In the case of ILKRWWLFKKL [Chain302], the “Minimum inhibitory concentration, Escherichia coli (ATCC 25922)” value [1] is reported as greater than 128 µg/mL, the “Minimum inhibitory concentration … (ATCC 10031)” value [2] is reported as greater than 128 µg/mL and the “Minimum inhibitory concentration … (ATCC 27853)” value [3] is reported as 16 µg/mL. For the same compound, the “Minimum inhibitory concentration … (ATCC 25923)” value [4] was 128 µg/mL.
